According to US20230085307A1, “PYRIDAZINONE COMPOUND AND HERBICIDE” (NISSAN CHEMICAL CORPORATION, priority 2019, published 2023):

Experiments:
Italian ryegrass [1] = experiment: Test Example 4: herbicidal effect by soil treatment (Table 19, symbol K); format: in vivo, Italian ryegrass (Lolium multiflorum); details: amount of applied herbicide 320 g/ha
In short: (§1)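 Scoring uses the grading scale of an earlier test, three weeks post-application. Treatment consists of spraying a diluted emulsion formulation across the surface of sterilized diluvial soil in which seeds are buried near 1.5 cm deep; boxes are kept in a greenhouse between 25° C. and 30° C.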

Chinese sprangletop = experiment: Test Example 3: herbicidal effect by foliage application, Wagner pot (Table 18, symbol D); format: in vivo, chinese sprangletop (Leptochloa chinensis); details: amount of applied herbicide 320 g/ha
In short: (§2)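 Plants were sown in alluvial soil held under 0.1–0.5 cm standing water and grown 14 days in a greenhouse at 25–30 °C. An emulsifiable formulation, water-diluted to the set dose, was then sprayed onto the foliage, and effects were scored three weeks later using previously defined criteria.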

blackgrass [2] = experiment: Test Example 4: herbicidal effect by soil treatment (Table 19, symbol J); format: in vivo, blackgrass (Alopecurus myosuroides); details: amount of applied herbicide 320 g/ha
In short: as §1

green foxtail [3] = experiment: Test Example 4: herbicidal effect by soil treatment (Table 19, symbol G); format: in vivo, green foxtail (Setaria viridis); details: amount of applied herbicide 320 g/ha
In short: as §1

Italian ryegrass [4] = experiment: Test Example 5: herbicidal effect by foliage application, plastic box (Table 20, symbol K); format: in vivo, Italian ryegrass (Lolium multiflorum); details: foliage application, 320 g/ha, evaluated three weeks after application
In short: (§3)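 Post-emergence foliar test in sterilized diluvial soil. Compound applied as water-diluted emulsion at a predetermined rate to 14-day-old plants; evaluation at three weeks.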

wild oat [5] = experiment: Test Example 5: herbicidal effect by foliage application, plastic box (Table 20, symbol I); format: in vivo, wild oat (Avena fatua); details: foliage application, 320 g/ha, evaluated three weeks after application
In short: as §3

southern crabgrass [6] = experiment: Test Example 4: herbicidal effect by soil treatment (Table 19, symbol F); format: in vivo, southern crabgrass (Digitaria ciliaris); details: amount of applied herbicide 320 g/ha
In short: as §1

chickweed [7] = experiment: Test Example 5: herbicidal effect by foliage application, plastic box (Table 20, symbol P); format: in vivo, common chickweed (Stellaria media); details: foliage application, 320 g/ha, evaluated three weeks after application
In short: as §3

velvetleaf [8] = experiment: Test Example 5: herbicidal effect by foliage application, plastic box (Table 20, symbol M); format: in vivo, velvetleaf (Abutilon theophrasti); details: foliage application, 320 g/ha, evaluated three weeks after application
In short: as §3

barnyard grass [9] = experiment: Test Example 4: herbicidal effect by soil treatment (Table 19, symbol H); format: in vivo, barnyard grass (Echinochloa crus-galli); details: amount of applied herbicide 320 g/ha
In short: as §1

green foxtail [10] = experiment: Test Example 5: herbicidal effect by foliage application, plastic box (Table 20, symbol G); format: in vivo, green foxtail (Setaria viridis); details: foliage application, 320 g/ha, evaluated three weeks after application
In short: as §3

persian speedwell [11] = experiment: Test Example 4: herbicidal effect by soil treatment (Table 19, symbol R); format: in vivo, Persian speedwell (Veronica persica); details: amount of applied herbicide 320 g/ha
In short: as §1

chickweed [12] = experiment: Test Example 4: herbicidal effect by soil treatment (Table 19, symbol P); format: in vivo, common chickweed (Stellaria media); details: amount of applied herbicide 320 g/ha
In short: as §1

southern crabgrass [13] = experiment: Test Example 5: herbicidal effect by foliage application, plastic box (Table 20, symbol F); format: in vivo, southern crabgrass (Digitaria ciliaris); details: foliage application, 320 g/ha, evaluated three weeks after application
In short: as §3

barnyard grass [14] = experiment: Test Example 3: herbicidal effect by foliage application, Wagner pot (Table 18, symbol H); format: in vivo, barnyard grass (Echinochloa crus-galli); details: amount of applied herbicide 320 g/ha
In short: as §2

blackgrass [15] = experiment: Test Example 5: herbicidal effect by foliage application, plastic box (Table 20, symbol J); format: in vivo, blackgrass (Alopecurus myosuroides); details: foliage application, 320 g/ha, evaluated three weeks after application
In short: as §3

lambsquarters [16] = experiment: Test Example 5: herbicidal effect by foliage application, plastic box (Table 20, symbol O); format: in vivo, lambsquarters (Chenopodium album); details: foliage application, 320 g/ha, evaluated three weeks after application
In short: as §3

barnyard grass [17] = experiment: Test Example 5: herbicidal effect by foliage application, plastic box (Table 20, symbol H); format: in vivo, barnyard grass (Echinochloa crus-galli); details: foliage application, 320 g/ha, evaluated three weeks after application
In short: as §3

rice flat sedge = experiment: Test Example 3: herbicidal effect by foliage application, Wagner pot (Table 18, symbol E); format: in vivo, rice flat sedge (Cyperus iria); details: amount of applied herbicide 320 g/ha
In short: as §2

windgrass = experiment: Test Example 4: herbicidal effect by soil treatment (Table 19, symbol L); format: in vivo, windgrass (Apera spica-venti); details: amount of applied herbicide 320 g/ha
In short: as §1

wild oat [18] = experiment: Test Example 4: herbicidal effect by soil treatment (Table 19, symbol I); format: in vivo, wild oat (Avena fatua); details: amount of applied herbicide 320 g/ha
In short: as §1

redroot pigweed [19] = experiment: Test Example 4: herbicidal effect by soil treatment (Table 19, symbol N); format: in vivo, redroot pigweed (Amaranthus retroflexus); details: amount of applied herbicide 320 g/ha
In short: as §1

redroot pigweed [20] = experiment: Test Example 5: herbicidal effect by foliage application, plastic box (Table 20, symbol N); format: in vivo, redroot pigweed (Amaranthus retroflexus); details: foliage application, 320 g/ha, evaluated three weeks after application
In short: as §3

lambsquarters [21] = experiment: Test Example 4: herbicidal effect by soil treatment (Table 19, symbol O); format: in vivo, lambsquarters (Chenopodium album); details: amount of applied herbicide 320 g/ha
In short: as §1

persian speedwell [22] = experiment: Test Example 5: herbicidal effect by foliage application, plastic box (Table 20, symbol R); format: in vivo, Persian speedwell (Veronica persica); details: foliage application, 320 g/ha, evaluated three weeks after application
In short: as §3

velvetleaf [23] = experiment: Test Example 4: herbicidal effect by soil treatment (Table 19, symbol M); format: in vivo, velvetleaf (Abutilon theophrasti); details: amount of applied herbicide 320 g/ha
In short: as §1

How did the “K: Italian ryegrass, herbicidal effect rating” value (Italian ryegrass [1]) turn out when `COc1cccc(-c2sc3ccc(F)cc3c2-c2c(O)c(C)nn(C)c2=O)c1` [2-209] was run?
Its value is 2 (Herbicidal rate of 20% or more and less than 40%).

And the “herbicidal effect on D: Chinese sprangletop” value (Chinese sprangletop)?
Its value is 4 (Herbicidal rate of 70% or more and less than 90%).

What about the “J: blackgrass, herbicidal effect rating” value (blackgrass [2]) of the same compound?
Its value is 0 (Herbicidal rate of 5% or less (almost no effect)).

What about the “G: green foxtail, herbicidal effect rating” value (green foxtail [3]) of the same compound?
Its value is 5 (Herbicidal rate of 90% or more (almost completely withered)).

And the “herbicidal effect on K: Italian ryegrass (criteria 0-5)” value (Italian ryegrass [4])?
Its value is 4 (Herbicidal rate of 70% or more and less than 90%).

What about the “herbicidal effect on I: wild oat (criteria 0-5)” value (wild oat [5]) of the same compound?
Its value is 0 (Herbicidal rate of 5% or less (almost no effect)).

And the “F: southern crabgrass, herbicidal effect rating” value (southern crabgrass [6])?
Its value is 5 (Herbicidal rate of 90% or more (almost completely withered)).

And the “herbicidal effect on P: chickweed (criteria 0-5)” value (chickweed [7])?
Its value is 5 (Herbicidal rate of 90% or more (almost completely withered)).

And the “herbicidal effect on M: velvetleaf (criteria 0-5)” value (velvetleaf [8])?
The value was 4 (Herbicidal rate of 70% or more and less than 90%).

What about the “H: barnyard grass, herbicidal effect rating” value (barnyard grass [9]) of the same compound?
Its value is 4 (Herbicidal rate of 70% or more and less than 90%).

What about the “herbicidal effect on G: green foxtail (criteria 0-5)” value (green foxtail [10]) of the same compound?
Its value is 5 (Herbicidal rate of 90% or more (almost completely withered)).

What about the “R: persian speedwell, herbicidal effect rating” value (persian speedwell [11]) of the same compound?
The value was 1 (Herbicidal rate of 5% or more and less than 20%).

And the “P: chickweed, herbicidal effect rating” value (chickweed [12])?
Its value is 4 (Herbicidal rate of 70% or more and less than 90%).

What about the “herbicidal effect on F: southern crabgrass (criteria 0-5)” value (southern crabgrass [13]) of the same compound?
The value was 5 (Herbicidal rate of 90% or more (almost completely withered)).

What about the “herbicidal effect on H: barnyard grass” value (barnyard grass [14]) of the same compound?
Its value is 5 (Herbicidal rate of 90% or more (almost completely withered)).

And the “herbicidal effect on J: blackgrass (criteria 0-5)” value (blackgrass [15])?
The value was 4 (Herbicidal rate of 70% or more and less than 90%).

What about the “herbicidal effect on O: lambsquarters (criteria 0-5)” value (lambsquarters [16]) of the same compound?
Its value is 4 (Herbicidal rate of 70% or more and less than 90%).

What about the “herbicidal effect on H: barnyard grass (criteria 0-5)” value (barnyard grass [17]) of the same compound?
The value was 5 (Herbicidal rate of 90% or more (almost completely withered)).

What about the “herbicidal effect on E: rice flat sedge” value (rice flat sedge) of the same compound?
Its value is 5 (Herbicidal rate of 90% or more (almost completely withered)).

And the “L: windgrass, herbicidal effect rating” value (windgrass)?
The value was 0 (Herbicidal rate of 5% or less (almost no effect)).

What about the “I: wild oat, herbicidal effect rating” value (wild oat [18]) of the same compound?
The value was 0 (Herbicidal rate of 5% or less (almost no effect)).

What about the “N: redroot pigweed, herbicidal effect rating” value (redroot pigweed [19]) of the same compound?
Its value is 4 (Herbicidal rate of 70% or more and less than 90%).

And the “herbicidal effect on N: redroot pigweed (criteria 0-5)” value (redroot pigweed [20])?
The value was 5 (Herbicidal rate of 90% or more (almost completely withered)).

What about the “O: lambsquarters, herbicidal effect rating” value (lambsquarters [21]) of the same compound?
The value was 5 (Herbicidal rate of 90% or more (almost completely withered)).

And the “herbicidal effect on R: persian speedwell (criteria 0-5)” value (persian speedwell [22])?
Its value is 5 (Herbicidal rate of 90% or more (almost completely withered)).

And the “M: velvetleaf, herbicidal effect rating” value (velvetleaf [23])?
The value was 2 (Herbicidal rate of 20% or more and less than 40%).
